Results reported in the NIST ThermoML archive (doi:10.1021/acs.jced.5b00428).

Key:
[1] = mn = molality of the nth substance listed, in mol/kg; settings: 100 kPa, Liquid; for viscosity: Capillary tube (Ostwald / Ubbelohde) method; for mass density: Vibrating tube method
[2] = 101 kPa, Liquid, Capillary tube (Ostwald / Ubbelohde) method

CCCCn1cc[n+](C)c1.[Br-] [1-butyl-3-methylimidazolium bromide] + O
[1]
Settings	mass density, m1 = 0.0046 [kg/m3]	mass density, m1 = 0.0141 [kg/m3]	mass density, m1 = 0.0231 [kg/m3]	viscosity, m1 = 0.0046 [mPa·s]	viscosity, m1 = 0.0141 [mPa·s]	viscosity, m1 = 0.0231 [mPa·s]
288.15 K	999.318	999.804	1000.22	1.14	1.146	1.148
293.15 K	998.492	998.891	999.304	1.003	1.008	1.012
298.15 K	997.279	997.685	998.078	0.891	0.895	0.897
303.15 K	995.876	996.322	996.69	0.8	0.8	0.804
308.15 K	994.252	994.678	995.112	0.721	0.722	0.725
313.15 K	992.415	992.871	993.178	0.654	0.656	0.657

O [water]
[2]
Settings	viscosity [mPa·s]
288.15 K	1.138
293.15 K	1.001
298.15 K	0.89
303.15 K	0.797
308.15 K	0.719
313.15 K	0.653

O [water] + CCCCn1cc[n+](C)c1.[Br-]
[1], m2 = 0
Settings	viscosity [mPa·s]
288.15 K	1.138
293.15 K	1.001
298.15 K	0.89
303.15 K	0.797
308.15 K	0.719
313.15 K	0.653
